The subject of assay [1] is precontracted rabbit or rat aortic preparations. As to the kind of experiment: Vasorelaxant potency on precontracted aortic rings. The settings on record: for vasorelaxant potency in words: precontracted vascular preparations; for IC50: thoracic aortic segments precontracted with histamine or norepinephrine, read-out: IC50 (concentration producing half-maximal relaxation of the precontracted tissue). The procedure: Synthetic ANVP compounds were compared to partially purified (gel filtration step) and purified (HPLC) native ANVP compounds (See FIGS. 3A-D) for their ability to relax histamine-contracted aortic rings. Rings were suspended in 10 ml aerated Kreb's buffer under 1.5 gm passive tension. Rings were precontracted with 5 X 10^-6 M histamine, washed and allowed to return to baseline tension, as described ([…]., supra). Increasing amounts of purified or synthetic ANVP compounds were then added in cumulative fashion. […] The relaxation effects of various ANVP compounds on precontracted rabbit or rat aortic preparations are shown in Table III. | Thoracic aortic segments were precontracted with histamine or | norepinephrine as previously described. Various doses of ANVP compounds | were then added and relaxation of the precontracted state was monitored. | Data are expressed as the concentration of each peptide required to | produce a halfmaximal relaxation of the precontracted tissue (IC50).

Assay [2] deals with ANVP receptor sites on cultured bovine vascular smooth muscle cells. As to the kind of experiment: Displacement of specific [125I]rANVP(126-150) binding on cultured smooth muscle cells. The settings on record: for Ki: concentration of half-maximal displacement. The text has this: Specific and saturable binding is a necessary component of a hormone/receptor interaction.
Various concentrations of the peptides described were examined for […]

For a further assay, the system named is experimental animals. As to the kind of experiment: Diuretic activity following infusion into experimental animals (FIG. 12B). The conditions noted are these: urinary flow rate as percentage of baseline. It is filed as in vivo. From the text:
FIG. 12 graphically portrays a comparison of the activities of selected compounds of the present invention, in which Panel A depicts a dose response relationship comparing the vasorelaxant properties of rANVP […] and [Ala^130 ]rANVP(126-150) and Panel B portrays a comparison of the diuretic activities of the same two peptides following infusion into experimental animals. Urinary flow rates during and post infusion (periods 7-24) were compared to control (baseline) flow rates (periods 1-6) and data are expressed as the percentage of baseline control values;
In table VII, various ANVP compounds were tested over a ten-fold range of concentration. Most of the peptides induced diuresis and natriuresis with few exceptions ([D-Asp^135 ]rANVP(126-150), [D-Val^137 ] rANVP(126-150)]). […] This is perhaps best observed with the ANVP analog [Ala^130 ]rANVP(126-150). […] Thus, it appears that [Ala^130 ]rANVP(126-150), rANVP(126-147) and related peptide forms represent classes of compounds which may exert renal selectivity. Such compounds could have important therapeutic value.

The test system of the next assay is isolated rat kidney. As to the kind of experiment: Renal function in the isolated perfused rat kidney. The conditions noted are these: dose 0.1 μg; experimental period E; mean of 3-8 experiments.
Another assay has as its system intact rats. As to the kind of experiment: Natriuretic and diuretic effects in intact rats (bolus injection). It is filed as in vivo, rat. The settings on record: dose 3670 pmol/kg. Here is the method:
Synthetic ANVP compounds […] hANVP(127-151) were also found to be natriuretic in the intact rat. These compounds were administered as a bolus injection to Inactin anesthetized rats (100 mg/kg, average weight 399 g) which were maintained on a constant infusion of normal saline at 2.2 ml/hr. […] Data are expressed as mean±SE.

The test system of assay [3] is rabbit thoracic aortic rings. As to the kind of experiment: Relaxation of histamine-contracted rabbit thoracic aortic rings. The conditions noted are these: tested as described for the expressed material. Here is the method:
Synthetic ANVP compounds were compared to partially purified (gel filtration step) and purified (HPLC) native ANVP compounds (See FIGS. 3A-D) for their ability to relax histamine-contracted aortic rings. Rings were suspended in 10 ml aerated Kreb's buffer under 1.5 gm passive tension. Rings were precontracted with 5 X 10^-6 M histamine, washed and allowed to return to baseline tension, as described (Kleinert, H. D., supra). Increasing amounts of purified or synthetic ANVP compounds were then added in cumulative fashion.
The dried methanol soluble and ammonium acetate eluted material was resolubilized in 0.5 ml of distilled H2 O and tested for biological activity using the precontracted rabbit thoracic aortic ring model described in Kleinert, et al., Hypertension 6:Suppl. 1:143-146 (1984). Equal volumes of material reconstituted from crude lyophilized media, methanol soluble protein or protein eluted from SP-Sephadex® with 1.0 M ammonium acetate were compared using aortic rings precontracted with 5 μM histamine. Material synthesized by yeast cultures whose plasmids encoded proANVP (amino acids 26-152) (YEp-α-NF-9) and proANVP (amino acids 121-152) (YEp-α-NF-5), as well as the corresponding inverse orientations (YEp-α-NF-12 and YEp-α-NF-7, respectively), were compared.
A fraction of the crude bacteria extract was subsequently boiled for 5 minutes and lowered to pH 2.5 for 1 hour. […]

What is called Ki is the dissociation constant of the complex between target and ligand, obtained from inhibition or displacement. A higher Ki goes with weaker binding.

Positions of bridges follow the written chain, without caps; N, C: chain ends. Residues, ends and D or L forms follow the SMILES beside them. No end group written: not given here.

Take `CC[C@H](C)[C@@H]1NC(=O)[C@H](CCCNC(=N)N)NC(=O)[C@H](CC(=O)O)NC(=O)[C@H]([C@@H](C)CC)NC(=O)[C@H](CCCNC(=N)N)NC(=O)CNC(=O)CNC(=O)[C@H](C)NC(=O)[C@@H](NC(=O)[C@H](CO)NC(=O)[C@H](CO)NC(=O)[C@@H](N)CCCNC(=N)N)CSSC[C@@H](C(=O)N[C@@H](CC(N)=O)C(=O)N[C@@H](CO)C(=O)N[C@@H](Cc2ccccc2)C(=O)N[C@@H](CCCNC(=N)N)C(=O)N[C@@H](Cc2ccc(O)cc2)C(=O)O)NC(=O)CNC(=O)[C@H](CC(C)C)NC(=O)CNC(=O)[C@H](CO)NC(=O)[C@H](CCC(N)=O)NC(=O)[C@H](C)NC(=O)CNC1=O` [[Ala^130]rANVP(126-150)]: the “vasorelaxant potency in words” value in assay [1] was “substantially less potent than rANVP(126-150)”; in assay [1] (listed as [Ala^130 ] rANVP) it was “essentially inactive”. Moreover, the IC50 in assay [1] was over 100 nM. Moreover, in assay [2], the “binding activity in smooth muscle cells relative to rANVP(126-150), in words” value is reported as “comparable binding activity to rANVP(126-150)”. Besides, in assay [2] (Series B smooth muscle cells), the Ki worked out at 11.1 nM. Also, in the assay on experimental animals, the “diuretic effects in vivo compared with rANVP(126-150) (FIG. 12b)” value is reported as “nearly equipotent”.

Consider `CC[C@H](C)[C@@H]1NC(=O)[C@H](CCCNC(=N)N)NC(=O)[C@H](CC(=O)O)NC(=O)[C@H]([C@@H](C)CC)NC(=O)[C@H](CCCNC(=N)N)NC(=O)CNC(=O)CNC(=O)[C@H](Cc2ccccc2)NC(=O)[C@@H](NC(=O)[C@H](CO)NC(=O)[C@H](CO)NC(=O)[C@@H](N)CCCNC(=N)N)CSSC[C@@H](C(=O)N[C@@H](CC(N)=O)C(=O)N[C@@H](CO)C(=O)N[C@@H](Cc2ccccc2)C(=O)N[C@@H](CCCNC(=N)N)C(=O)N[C@@H](Cc2ccc(O)cc2)C(=O)O)NC(=O)CNC(=O)[C@H](CC(C)C)NC(=O)[C@@H](C)NC(=O)[C@H](CO)NC(=O)[C@H](CCC(N)=O)NC(=O)[C@H](C)NC(=O)CNC1=O` [[D-Ala^142]rANVP(126-150), H-Arg-Ser-Ser-Cys-Phe-Gly-Gly-Arg-Ile-Asp-Arg-Ile-Gly-Ala-gln-Ser-[D-Ala]-Leu-Gly-Cys-Asn-Ser-Phe-Arg-Tyr-OH], for which, in the assay with isolated rat kidney, the “.V (urine flow rate)” value turned out to be 58.5 µL/min, the GFR was determined as 0.75 mL/min and the “UNa.V (urinary sodium excretion rate)” value was found to be 2.50 μEq/min. Moreover, in assay [1], the “vasorelaxant potency in words” value was “most potent” and the IC50 was 0.62 nM. The inhibitory constant (Ki) in assay [2] (Series A smooth muscle cells) was determined as 0.6 nM. Besides, in the assay on intact rats, the “Peak Na+ Excr.” value is 9.1 ± 0.9 µmol/min and the “Peak Urine Vol.” value came to 66.3 ± 3 µL/min.

Consider `CC[C@H](C)[C@@H]1NC(=O)[C@H](CCCNC(=N)N)NC(=O)[C@H](CC(=O)O)NC(=O)[C@H](CCSC)NC(=O)[C@H](CCCNC(=N)N)NC(=O)CNC(=O)CNC(=O)[C@H](Cc2ccccc2)NC(=O)[C@@H](NC(=O)[C@H](CO)NC(=O)[C@@H](N)CO)CSSC[C@@H](C(=O)N[C@@H](CC(N)=O)C(=O)N[C@@H](CO)C(=O)N[C@@H](Cc2ccccc2)C(=O)N[C@@H](CCCNC(=N)N)C(=O)N[C@@H](Cc2ccc(O)cc2)C(=O)O)NC(=O)CNC(=O)[C@H](CC(C)C)NC(=O)CNC(=O)[C@H](CO)NC(=O)[C@H](CCC(N)=O)NC(=O)[C@H](C)NC(=O)CNC1=O` [hANVP(128-151)] (H-SSCFGGRMDRIGAQSGLGCNSFRY-OH; disulfide 3-19), for which, in assay [3], the “biological (vasodilatory) activity of expression products, in words” value was “displayed the full range of biological activities”. Further, the affinity in assay [2] (Series A smooth muscle cells) corresponds to a Ki of 7 nM.

With “hANVP(126-151): human product produced in CHO cells, as printed; probably prohANVP(26-151) (RRSSCFGGRMDRIGAQSGLGCNSFRY; ends and bridges not checked; cysteine pairing not given here; UniProt P01160 126-151, looked up, fragment)”, the “biological (vasodilatory) activity of expression products, in words” value in assay [3] is “exhibited biological activity similar to that observed above”.

The record behind these values is patent publication US5212286A, “Atrial Natriuretic/vasodilator peptide compounds” (Scios Nova Inc., priority 1986, dated 1993).
